Data taken from article PMC6407913, “DREADD Agonist 21 Is an Effective Agonist for Muscarinic-Based DREADDs in Vitro and in Vivo” (ACS Pharmacology & Translational Science, 2018).
“And” between values parts separate entries of the source, which are not always exact repeats. Equal entries are not always repeated. Where two headings read alike, the source gives them in different places.

Key:
Experiment in all cases: NIMH PDSP radioligand binding, membranes
H3 = H3 (Homo sapiens, UniProt Q9Y5N1)
Description: (§1) Radioligand binding assays with membrane preparations to determine binding affinity were carried out as outlined before[540] and by the National Institute of Mental Health’s Psychoactive Drug Screening Program (NIMH PDSP) (https://pdsp.unc.edu/), Contract # HHSN-271–2013–00017-C. The NIMH PDSP is Directed by B.L.R. at the University of North Carolina at Chapel Hill, Chapel Hill, NC, and Project Officer Jamie Driscoll at NIMH, Bethesda, MD.

5-HT2B = 5-HT2B (Homo sapiens, UniProt P41595)
Description: as §1

D5 = D5 (Homo sapiens, UniProt P21918)
Description: as §1

Alpha2C = target: T1, Alpha2C (Homo sapiens, UniProt P18825)
T1 construct: NIMH PDSP
Description: as §1

5-HT1B = target: T2, 5-HT1B (Homo sapiens, UniProt P28222)
T2 construct: NIMH PDSP
Description: as §1

D2 = D2 (Homo sapiens, UniProt P14416)
Description: as §1

M1 = M1 (Homo sapiens, UniProt P11229)
Description: as §1

M3 = M3 (Homo sapiens, UniProt P20309)
Description: as §1

Alpha 1B = target: T3, Alpha 1B (Homo sapiens, UniProt P35368)
T3 construct: NIMH PDSP
T3 sequence (P35368 1-520): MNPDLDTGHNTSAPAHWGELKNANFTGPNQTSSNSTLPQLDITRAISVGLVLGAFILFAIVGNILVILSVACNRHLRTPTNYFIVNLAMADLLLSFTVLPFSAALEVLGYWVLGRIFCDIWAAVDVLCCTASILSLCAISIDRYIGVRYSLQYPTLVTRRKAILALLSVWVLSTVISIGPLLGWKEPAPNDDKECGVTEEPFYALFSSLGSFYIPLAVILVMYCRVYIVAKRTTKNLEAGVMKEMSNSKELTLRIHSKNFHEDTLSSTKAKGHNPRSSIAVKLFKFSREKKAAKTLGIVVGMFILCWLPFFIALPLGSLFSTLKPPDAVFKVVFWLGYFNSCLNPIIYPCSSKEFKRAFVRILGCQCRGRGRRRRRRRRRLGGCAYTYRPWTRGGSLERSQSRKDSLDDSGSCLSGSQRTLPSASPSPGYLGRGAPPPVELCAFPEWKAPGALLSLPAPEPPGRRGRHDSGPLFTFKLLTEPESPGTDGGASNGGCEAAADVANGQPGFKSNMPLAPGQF
Description: as §1

Beta2 = Beta2 (Homo sapiens, UniProt P07550)
Description: as §1

Alpha1A = target: T4, Alpha1A (Homo sapiens, UniProt P35348)
T4 construct: NIMH PDSP
T4 sequence (P35348 1-466): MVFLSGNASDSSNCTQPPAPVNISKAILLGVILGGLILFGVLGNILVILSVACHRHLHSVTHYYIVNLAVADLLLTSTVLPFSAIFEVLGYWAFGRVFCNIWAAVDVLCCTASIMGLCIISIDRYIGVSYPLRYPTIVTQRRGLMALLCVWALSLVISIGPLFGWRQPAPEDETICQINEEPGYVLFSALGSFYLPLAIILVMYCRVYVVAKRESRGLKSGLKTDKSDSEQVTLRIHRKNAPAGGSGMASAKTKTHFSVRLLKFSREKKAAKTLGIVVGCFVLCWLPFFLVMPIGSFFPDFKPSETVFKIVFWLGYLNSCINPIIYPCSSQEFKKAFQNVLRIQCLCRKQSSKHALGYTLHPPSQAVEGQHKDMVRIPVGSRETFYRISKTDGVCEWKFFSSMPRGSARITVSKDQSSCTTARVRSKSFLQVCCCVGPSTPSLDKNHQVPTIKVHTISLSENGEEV
Description: as §1

CB1 = CB1 (Homo sapiens, UniProt P21554)
Description: as §1

5-HT2C = target: T5, 5-HT2C (Homo sapiens, UniProt P28335)
T5 sequence (P28335 33-458): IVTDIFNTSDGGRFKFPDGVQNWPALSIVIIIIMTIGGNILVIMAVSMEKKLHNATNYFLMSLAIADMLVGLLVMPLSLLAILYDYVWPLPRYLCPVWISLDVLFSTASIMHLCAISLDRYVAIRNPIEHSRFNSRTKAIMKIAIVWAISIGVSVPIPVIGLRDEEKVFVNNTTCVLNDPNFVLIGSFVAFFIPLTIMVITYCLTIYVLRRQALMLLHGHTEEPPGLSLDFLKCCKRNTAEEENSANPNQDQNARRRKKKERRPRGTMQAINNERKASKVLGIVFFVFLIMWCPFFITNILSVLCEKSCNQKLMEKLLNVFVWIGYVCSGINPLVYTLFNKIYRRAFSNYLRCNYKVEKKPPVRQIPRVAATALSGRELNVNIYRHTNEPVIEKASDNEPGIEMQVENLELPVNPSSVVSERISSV
Description: as §1

5-HT5A = target: T6, 5-HT5A (Homo sapiens, UniProt P47898)
T6 construct: NIMH PDSP
Description: as §1

[1] = read-out: Ki #1-#5 (individual assays)
[2] = read-out: log Ki (individual assays) (converted)

Sequence of M1 (P11229 whole entry): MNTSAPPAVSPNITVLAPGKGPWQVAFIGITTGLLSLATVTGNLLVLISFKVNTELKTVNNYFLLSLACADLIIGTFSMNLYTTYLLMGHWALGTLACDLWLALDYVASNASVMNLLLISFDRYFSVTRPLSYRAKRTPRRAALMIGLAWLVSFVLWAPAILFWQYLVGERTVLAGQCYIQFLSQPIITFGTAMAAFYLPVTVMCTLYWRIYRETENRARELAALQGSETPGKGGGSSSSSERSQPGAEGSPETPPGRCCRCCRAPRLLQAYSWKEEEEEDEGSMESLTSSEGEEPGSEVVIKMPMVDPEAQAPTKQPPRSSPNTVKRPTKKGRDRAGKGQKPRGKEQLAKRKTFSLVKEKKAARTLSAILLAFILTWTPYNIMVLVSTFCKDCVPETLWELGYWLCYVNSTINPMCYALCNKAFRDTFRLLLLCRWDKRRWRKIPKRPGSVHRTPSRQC
Sequence of 5-HT2B (P41595 whole entry, species assumed): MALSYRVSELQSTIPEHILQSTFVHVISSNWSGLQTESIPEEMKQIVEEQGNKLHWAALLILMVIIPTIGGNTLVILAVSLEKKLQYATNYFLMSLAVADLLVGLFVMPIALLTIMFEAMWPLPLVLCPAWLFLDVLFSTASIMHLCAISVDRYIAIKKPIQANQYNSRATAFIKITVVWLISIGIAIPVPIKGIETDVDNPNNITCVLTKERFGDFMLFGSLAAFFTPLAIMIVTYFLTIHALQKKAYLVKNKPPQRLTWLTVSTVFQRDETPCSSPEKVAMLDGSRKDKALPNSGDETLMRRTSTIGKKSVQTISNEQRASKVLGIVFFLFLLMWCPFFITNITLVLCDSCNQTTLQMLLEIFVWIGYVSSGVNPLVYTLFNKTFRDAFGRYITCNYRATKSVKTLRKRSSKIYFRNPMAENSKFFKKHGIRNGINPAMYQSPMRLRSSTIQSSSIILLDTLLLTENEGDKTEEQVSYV
Sequence of M3 (P20309 whole entry): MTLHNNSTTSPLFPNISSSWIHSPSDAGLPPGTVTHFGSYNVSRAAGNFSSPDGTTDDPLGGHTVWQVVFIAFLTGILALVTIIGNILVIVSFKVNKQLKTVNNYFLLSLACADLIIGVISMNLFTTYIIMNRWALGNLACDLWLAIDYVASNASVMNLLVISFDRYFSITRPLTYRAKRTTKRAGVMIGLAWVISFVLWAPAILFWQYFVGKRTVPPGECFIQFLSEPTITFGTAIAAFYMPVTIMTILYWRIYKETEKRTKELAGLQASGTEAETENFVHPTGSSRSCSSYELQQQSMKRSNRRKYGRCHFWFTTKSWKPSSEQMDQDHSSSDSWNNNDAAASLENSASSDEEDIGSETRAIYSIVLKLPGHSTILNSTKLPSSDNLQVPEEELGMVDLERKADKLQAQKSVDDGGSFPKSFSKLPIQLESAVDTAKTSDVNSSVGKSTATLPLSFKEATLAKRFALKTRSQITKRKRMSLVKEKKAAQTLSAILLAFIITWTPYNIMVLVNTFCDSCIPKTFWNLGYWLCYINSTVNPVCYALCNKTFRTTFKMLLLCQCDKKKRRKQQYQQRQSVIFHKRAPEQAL
Sequence of D2 (P14416 whole entry): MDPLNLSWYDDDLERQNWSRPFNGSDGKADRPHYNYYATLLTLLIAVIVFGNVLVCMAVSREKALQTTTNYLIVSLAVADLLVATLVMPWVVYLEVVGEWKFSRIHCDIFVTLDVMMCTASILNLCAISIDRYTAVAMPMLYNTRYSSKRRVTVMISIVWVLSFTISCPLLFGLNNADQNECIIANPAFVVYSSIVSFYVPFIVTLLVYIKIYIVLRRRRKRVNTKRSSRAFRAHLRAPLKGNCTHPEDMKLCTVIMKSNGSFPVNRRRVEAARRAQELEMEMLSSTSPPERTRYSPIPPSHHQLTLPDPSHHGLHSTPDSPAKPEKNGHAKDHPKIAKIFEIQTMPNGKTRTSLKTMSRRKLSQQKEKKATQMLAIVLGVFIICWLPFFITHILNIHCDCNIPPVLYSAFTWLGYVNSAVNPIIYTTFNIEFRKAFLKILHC
T6 sequence (P47898 whole entry, species assumed): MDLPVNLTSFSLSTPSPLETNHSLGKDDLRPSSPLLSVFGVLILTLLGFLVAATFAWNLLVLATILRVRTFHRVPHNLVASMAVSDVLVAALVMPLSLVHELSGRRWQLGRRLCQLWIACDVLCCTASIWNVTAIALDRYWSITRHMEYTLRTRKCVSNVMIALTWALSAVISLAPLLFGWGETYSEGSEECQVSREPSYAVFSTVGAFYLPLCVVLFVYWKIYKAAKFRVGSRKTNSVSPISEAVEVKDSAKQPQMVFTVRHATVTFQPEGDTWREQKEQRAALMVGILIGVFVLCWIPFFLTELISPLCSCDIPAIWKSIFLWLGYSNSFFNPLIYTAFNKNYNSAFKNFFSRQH
T1 sequence (P18825 whole entry): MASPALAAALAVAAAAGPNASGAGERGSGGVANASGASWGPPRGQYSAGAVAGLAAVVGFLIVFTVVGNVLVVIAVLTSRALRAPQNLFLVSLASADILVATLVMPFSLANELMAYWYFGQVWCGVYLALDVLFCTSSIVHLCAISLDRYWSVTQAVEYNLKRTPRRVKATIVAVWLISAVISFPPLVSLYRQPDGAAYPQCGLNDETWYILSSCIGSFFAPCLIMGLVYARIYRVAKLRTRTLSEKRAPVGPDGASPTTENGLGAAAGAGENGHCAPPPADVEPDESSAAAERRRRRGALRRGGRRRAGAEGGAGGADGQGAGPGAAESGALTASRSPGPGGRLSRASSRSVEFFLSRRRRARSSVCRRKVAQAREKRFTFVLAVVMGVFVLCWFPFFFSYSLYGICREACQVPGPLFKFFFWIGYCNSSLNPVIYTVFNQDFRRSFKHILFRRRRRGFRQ
T2 sequence (P28222 whole entry, species assumed): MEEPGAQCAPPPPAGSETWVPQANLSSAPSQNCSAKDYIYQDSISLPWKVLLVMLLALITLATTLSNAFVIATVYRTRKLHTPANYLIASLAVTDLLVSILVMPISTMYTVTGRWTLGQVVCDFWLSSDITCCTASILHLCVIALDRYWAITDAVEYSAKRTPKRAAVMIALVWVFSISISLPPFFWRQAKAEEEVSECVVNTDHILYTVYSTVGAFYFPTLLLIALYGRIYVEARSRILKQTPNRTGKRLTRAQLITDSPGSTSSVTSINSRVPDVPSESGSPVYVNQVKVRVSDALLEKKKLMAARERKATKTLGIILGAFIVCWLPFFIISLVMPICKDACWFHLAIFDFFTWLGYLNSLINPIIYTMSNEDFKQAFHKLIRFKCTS
Sequence of D5 (P21918 whole entry): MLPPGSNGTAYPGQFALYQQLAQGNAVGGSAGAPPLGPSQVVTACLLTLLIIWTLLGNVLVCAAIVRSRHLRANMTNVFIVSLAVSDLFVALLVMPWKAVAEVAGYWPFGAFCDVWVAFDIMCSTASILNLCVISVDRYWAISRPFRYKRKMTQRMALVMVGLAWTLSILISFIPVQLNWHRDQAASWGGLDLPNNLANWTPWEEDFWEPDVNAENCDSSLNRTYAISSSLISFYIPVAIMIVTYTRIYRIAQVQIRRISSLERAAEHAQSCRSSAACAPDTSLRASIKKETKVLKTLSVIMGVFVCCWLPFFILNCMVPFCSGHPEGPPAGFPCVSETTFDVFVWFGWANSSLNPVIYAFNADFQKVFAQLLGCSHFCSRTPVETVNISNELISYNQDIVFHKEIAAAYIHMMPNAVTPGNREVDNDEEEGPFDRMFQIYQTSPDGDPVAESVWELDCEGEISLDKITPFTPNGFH
Sequence of H3 (Q9Y5N1 whole entry): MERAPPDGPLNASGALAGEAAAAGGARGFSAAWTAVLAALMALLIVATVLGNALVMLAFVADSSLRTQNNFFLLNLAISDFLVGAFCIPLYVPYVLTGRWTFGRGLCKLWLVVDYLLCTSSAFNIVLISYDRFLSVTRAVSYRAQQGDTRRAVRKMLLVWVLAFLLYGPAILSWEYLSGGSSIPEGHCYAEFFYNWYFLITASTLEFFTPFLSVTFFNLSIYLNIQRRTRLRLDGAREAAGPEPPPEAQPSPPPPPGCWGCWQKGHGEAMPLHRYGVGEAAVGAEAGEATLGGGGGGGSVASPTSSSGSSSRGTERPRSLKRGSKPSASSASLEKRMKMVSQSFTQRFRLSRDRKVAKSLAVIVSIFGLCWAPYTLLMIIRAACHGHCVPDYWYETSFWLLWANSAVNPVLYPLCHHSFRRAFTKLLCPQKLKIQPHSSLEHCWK
Sequence of Beta2 (P07550 whole entry): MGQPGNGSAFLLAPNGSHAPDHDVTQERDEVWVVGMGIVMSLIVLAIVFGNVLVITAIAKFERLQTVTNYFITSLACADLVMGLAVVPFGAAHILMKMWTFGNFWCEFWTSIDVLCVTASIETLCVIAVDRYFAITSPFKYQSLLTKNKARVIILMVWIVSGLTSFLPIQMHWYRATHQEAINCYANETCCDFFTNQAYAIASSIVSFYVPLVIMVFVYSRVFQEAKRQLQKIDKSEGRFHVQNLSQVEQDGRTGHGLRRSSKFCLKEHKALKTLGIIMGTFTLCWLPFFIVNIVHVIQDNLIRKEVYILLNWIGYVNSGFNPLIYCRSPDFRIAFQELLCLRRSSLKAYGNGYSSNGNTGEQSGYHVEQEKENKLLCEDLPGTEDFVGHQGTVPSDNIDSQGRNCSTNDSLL

**Q.** For c1ccc2c(c1)N=C(N1CCNCC1)c1ccccc1N2 [C21, 11-(1-piperazinyl)-5H-dibenzo[b,e][1,4]diazepine], which Ki (H3; read-out: Ki) is on record?
**A.** 4.94 µM

**Q.** And the Ki (H3; [1])?
**A.** 6.85 µM and 4.58 µM and 3.85 µM

**Q.** And the Ki (5-HT2B; read-out: Ki)?
**A.** 32.7 nM

**Q.** And the Ki (5-HT2B; [2])?
**A.** 26.9 nM and 38 nM and 28.2 nM and 39.8 nM

**Q.** And the Ki (5-HT2B; read-out: pKi (mean) (converted))?
**A.** 33.1 nM

**Q.** And the Ki (D5; read-out: Ki)?
**A.** 2.9 µM

**Q.** What about the Ki (D5; [1]) of the same molecule?
**A.** 4.11 µM and 1.65 µM and 3.62 µM

**Q.** And the Ki (Alpha2C; read-out: Ki)?
**A.** 1690 nM

**Q.** And the Ki (Alpha2C; [1])?
**A.** 1860 nM and 936 nM and 2770 nM

**Q.** What about the Ki (5-HT1B; read-out: Ki) of the same molecule?
**A.** 3.64 µM

**Q.** And the Ki (5-HT1B; [1])?
**A.** 4.59 µM and 4.53 µM and 2.32 µM

**Q.** What about the Ki (5-HT1B; [2]) of the same molecule?
**A.** 4.57 µM

**Q.** What about the Ki (D2; read-out: Ki) of the same molecule?
**A.** 4.57 µM

**Q.** What about the Ki (D2; [1]) of the same molecule?
**A.** 2.75 µM and 4.74 µM and 7.34 µM

**Q.** What about the Ki (M1; read-out: Ki) of the same molecule?
**A.** 548 nM

**Q.** What about the Ki (M1; [1]) of the same molecule?
**A.** 693 nM and 303 nM and 785 nM

**Q.** And the Ki (M3; read-out: Ki)?
**A.** 270 nM

**Q.** What about the Ki (M3; [1]) of the same molecule?
**A.** 144 nM and 485 nM and 281 nM

**Q.** What about the “log Ki (individual assays)” value (Alpha 1B) of the same molecule?
**A.** <5

**Q.** What about the Ki (Alpha 1B; read-out: Ki) of the same molecule?
**A.** > 10 µM

**Q.** And the Ki (Alpha 1B; [1])?
**A.** > 10 µM

**Q.** And the Ki (Beta2; read-out: Ki)?
**A.** > 10 µM

**Q.** What about the Ki (Beta2; [1]) of the same molecule?
**A.** > 10 µM

**Q.** What about the “log Ki (individual assays)” value (Alpha1A) of the same molecule?
**A.** <5

**Q.** And the Ki (Alpha1A; read-out: Ki)?
**A.** > 10 µM

**Q.** What about the Ki (Alpha1A; [1]) of the same molecule?
**A.** > 10 µM

**Q.** What about the Ki (CB1; read-out: Ki) of the same molecule?
**A.** > 10 µM

**Q.** And the Ki (CB1; [1])?
**A.** > 10 µM

**Q.** What about the Ki (5-HT2C; read-out: Ki) of the same molecule?
**A.** 47.9 nM

**Q.** What about the Ki (5-HT2C; [1]) of the same molecule?
**A.** 48.2 nM and 57 nM

**Q.** What about the Ki (5-HT2C; [2]) of the same molecule?
**A.** 39.8 nM

**Q.** And the Ki (5-HT5A; read-out: Ki)?
**A.** 1910 nM

**Q.** And the Ki (5-HT5A; [1])?
**A.** 3300 nM and 1400 nM and 2020 nM and 1430 nM
